Experimental data from ChEMBL document CHEMBL3751839, “Novel phenylalanine derived diamides as Factor XIa inhibitors” (Bioorg Med Chem Lett, 2016).

Tests used:
in vitro = details: human, liver microsomes
Description: Stability in human liver microsomes assessed as half life

in vivo [1] = details: beagle, dog, iv, 0.4 mg/kg
Description: Total AUC in beagle dog at 0.4 mg/kg, iv administered as cassette dosing by LC-MS/MS method

in vivo [2] = details: beagle, dog, iv, 0.4 mg/kg; remark: listed apart in the source
Description: Half life in beagle dog at 0.4 mg/kg, iv cassette dosing by LC-MS/MS method

in vivo [3] = details: beagle, dog, iv, 0.4 mg/kg; remark: listed apart in the source
Description: Clearance in beagle dog at 0.4 mg/kg, iv administered as cassette dosing by LC-MS/MS method

in vivo [4] = details: beagle, dog, iv, 0.4 mg/kg; remark: listed apart in the source
Description: Volume of distribution at steady state in beagle dog at 0.4 mg/kg, iv cassette dosing by LC-MS/MS method

O=C(/C=C/c1cc(Cl)ccc1-n1cnnn1)N[C@@H](Cc1ccccc1)C(=O)Nc1ccc(-n2cnnn2)cc1
half-life (in vitro): > 1.67 h

COC(=O)Nc1cccc(NC(=O)[C@H](Cc2ccccc2)NC(=O)/C=C/c2cc(Cl)ccc2-n2cnnn2)c1
half-life (in vitro): > 1.67 h

O=C(/C=C/c1cc(Cl)ccc1-n1cnnn1)N[C@@H](Cc1ccccc1)C(=O)Nc1ccc(-c2nc[nH]n2)cc1
half-life (in vitro): > 1.67 h

O=C(/C=C/c1cc(Cl)ccc1-n1cnnn1)N[C@@H](Cc1ccccc1)C(=O)Nc1ccc(C(=O)O)cc1
AUC (in vivo [1]): 0.396 µM·h
half-life (in vivo [2]): 0.6 h
clearance (in vivo [3]): 16 mL/min/kg
half-life (in vitro): > 2 h
Vd (in vivo [4]): 0.5 L/kg
